The source of these data is patent US7732563B2, “Cloning, sequencing and expression of a gene encoding an eukaryotic amino acid racemase, and diagnostic, therapeutic, and vaccination applications of parasite and viral mitogens” (priority 1999, dated 2010).

One assay relates to total spleen cells. The experiment in a line: In vitro proliferation assay of splenocytes (3H-thymidine uptake). Type of assay: cell-based, mouse. To be noted: for mitogenic activity of rTcPA45 after pre-incubation with inhibitor of proline racemase: 50 μg/ml rTcPA45 pre-incubated with 1 mM inhibitor; for mitogenic activity of rTcPA45 with cultures supplemented with increasing amounts of substrate: 3 mM to 50 mM substrate, dose-dependent, competitive inhibition; for cell proliferation of lymphocytes with substrate alone: 50 mM alone; for 3H-thymidine uptake: after 48 h, ConA 10 μg/ml, LPS 5 μg/ml, BALB/c splenocytes 5×10^4 cells/well. The procedure:
Briefly, freshly recovered splenocytes from 8 week old male Balb/c mice seeded at a concentration of 5×10^4 cells/well were incubated for 24, 48 and 72 h in 5% FCS RPMI-1640 medium. A 16 h ^3H-thymidine pulse at 1 μCi/well was performed before harvesting. ^3H-Thymidine uptake was determined in a beta-plate liquid scintillation counter (LKB-Wallac). All points were done in triplicate and the corresponding standard deviation calculated. For comparison, ^3H-thymidine uptake after 48 h in the presence of ConA (10 μg/ml) and LPS (5 μg/ml) was 32000 c.p.m. and 3500 c.p.m., respectively. T-cell depletion was performed by incubating freshly recovered spleen cells for 30 min at 37° C. in the presence of anti-Thy 1.2 monoclonal antibody (Cedarlane) and rabbit complement (Cedarlane). In order to rule out a possible mitogenic effect due to LPS contamination in samples, proliferation assays were also performed on freshly recovered splenocytes from the LPS non-responder mouse strain C3H/Hej. Same levels of proliferation were verified. Balb/c mice were purchased from Charles River, France. C3H/Hej mice were maintained in our animal facilities.
In vitro proliferation is accomplished using freshly recovered splenocytes from BALB/c mice seeded at a density of 5×10^4 cells/well and incubated for 24, 48 and 72 h with increasing concentrations of total parasite supernatants or recombinant TcPa45 protein or other mitogen (0.07-200 μg/ml) with 0.5 μg/ml of the HPLC fractions, or with the conventionally used mitogens concanavalin A (10 μg/ml) and lipopolysaccharide (5 μg/ml) in 5% FCS in RPMI-1640 complete medium. T-cell depletion is accomplished by incubating freshly recovered spleen cells for 30 min. at 37° C. in the presence of monoclonal antibodies against Thy 1.2 and rabbit complement (Cedarlane, Le Perray en Yvelines, France). Analysis of proliferative activity of total splenocytes (5×10^4 cells/well) in the presence of 50 μg/ml enzymatically active rTcPA45 or other mitogen is also compared with the proliferation obtained using the same amounts of rTcPA45 protein or other mitogen lacking racemase activity (by heating for 10 min. at […] or by long term storage at 4° C.). Inhibition of proliferation is obtained by adding to the splenocyte cultures 50 μg/ml rTcPA45 or other mitogen pre-incubated for 10 min. at 37° C. with 1 mM inhibitor, either specific (pyrrole-2-carboxylic acid) or nonspecific (iodoacetamide or iodoacetate). Competitive assays of proliferative activity by 50 μg/ml rtcPA45 or other mitogen are done by adding increasing concentrations of specific substrates i.e., proline racemase substrates (L- or D-proline) for the mitogen rTcPA45 ranging from 3 mM to 50 mM. Controls include the incubation of splenocytes (5×10^4 cells/well) with substrate alone, i.e., 50 mM L- or D-proline in RPMI medium alone for prline racemase. Cultures are collected after a 16-hour pulse or 1 μCi/well ^3H-thymidine uptake was determined in a beta-plate liquid scintillation counter (LKB-Wallac, Orsay, France). All data points are obtained in triplicate and the corresponding standard deviation is calculated.
5×10^5 naive spleen cells/well (96 well plate) were stimulated in vitro with different doses of rTcPA45 (ranging in FIG. 4b from 0.8 to 200 μg/ml final) for 24, 48 and 72 h, at 37° C., 5% CO2. Cultures were pulsed with ^3H-Thymidine (1 μCi/well) for 16-18 h before harvesting. ^3H-thymidine incorporation was obtained after counting using a beta-plate. Results present arithmetic means of c.p.m. (counts/minute) from 6 wells/dose of rTcPA45 or wells containing medium alone (+/−SD of the means). (FIG. 4b)

The target in a further assay is T1, rTcPA45 proline racemase (Trypanosoma cruzi, UniProt Q4DA80).
T1 construct: made in house; host or cells: E. coli (pET28b(+))
T1 sequence (Q4DA80 30-423): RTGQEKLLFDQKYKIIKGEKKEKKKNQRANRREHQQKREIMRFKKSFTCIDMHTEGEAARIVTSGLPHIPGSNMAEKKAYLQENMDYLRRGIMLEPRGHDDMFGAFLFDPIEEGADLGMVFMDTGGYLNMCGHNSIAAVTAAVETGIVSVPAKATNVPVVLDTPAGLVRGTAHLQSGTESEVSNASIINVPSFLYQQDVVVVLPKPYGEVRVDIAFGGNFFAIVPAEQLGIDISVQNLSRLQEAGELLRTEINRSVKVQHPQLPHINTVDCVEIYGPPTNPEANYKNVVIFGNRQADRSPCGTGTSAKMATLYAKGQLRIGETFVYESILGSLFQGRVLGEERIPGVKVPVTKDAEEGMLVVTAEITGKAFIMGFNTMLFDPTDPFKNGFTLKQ
The assay is classed as biochemical. To be noted: 80 mM L-proline; inhibitors 6 mM to 100 mM. On the procedure:
To investigate the genomic organization and transcription of the Tc45 gene, Southern and Northern blot analyses were done. FIG. 4 depicts the results of characterization of rTcPA45 activities. FIG. 4, part a, is an 8% SDS-PAGE gel of rTcPA45 (Coomasie blue staining). Part b depicts the proliferative activity of total splenocytes (5×10^4 cells/well) in the presence of increasing concentrations of rTcPA45 (μg/ml). […] Reaction conditions were: 0.2 M Na-acetate/25 mM β-mercaptoethanol buffer, pH6, rTcPA45 (3 μg/ml), 30 min incubation at 37° C. in 500 μl. The reaction was stopped by incubating for 10 min at 80° C. […] Reactions were carried out for 30 min at 37° C. and stopped for 5 min at 80° C. All reagents and inhibitors were purchased from Sigma. The shift in optical rotation was measured in a Polarimeter 241 MC (Perkin Elmer).
3 μg of rTcPA45 was diluted in 500 μl of buffer (0.2M NaOAc, […] β-mercaptoethanol, pH6.0) containing different concentrations of the substrate (10-80 mM or L- or D-proline). (See FIG. 4c.) The reaction was incubated for 30-60 minutes at 37° C. in a water bath, followed by heat inactivation of the enzyme for 10 minutes at 80° C. Each sample is diluted to 1.5 ml with water and the mixture submitted to measurement of optical rotation using a polarimeter, at 365 nm. A sample without enzyme is used as a control. For optimal pH determination, buffer systems with NaOAc, phosphate, and Tris were used with pH ranging from 4.0-8.2. Curve of temperature was performed between 27° C. to 47° C.
The percent of racemization of different concentrations of L-proline, D-proline, L-hydroxy-proline and D-hydroxy-proline substrates was calculated by incubating a 500-μl mixture of 3 μg TcPA45 and 10-80 mM substrate in 0.2 M sodium acetate and 25 mM β-mercaptoethanol, pH 6, for 30 min at 37° C. The reaction was stopped by incubation for 10 min at 80° C. Water (1 ml) was then added, and the optical rotation was measured in polarimeter 241 MC (Perkin Elmer, Montignyle Bretonneux, France) at a wavelength of 365 nm, in a cell with a path length of 10 cm. The percent inhibition of racemization of 80 mM L-proline was determined in the presence of different concentrations of several specific and nonspecific inhibitors ranging in concentration from 6 mM to 100 mM. The percent racemization of 80 mM L-proline as a function of pH was determined using 0.2 M sodium acetate, potassium phosphate and Tris-HCl buffers containing 25 mM β-mercaptoethanol; reactions were incubated for 30 min at 37° C. as described above. All reagents and inhibitors were purchased from Sigma.

As for `O=C(O)c1ccc[nH]1` [pyrrole-2-carboxylic acid, reference compound], the “mitogenic activity of rTcPA45 after pre-incubation with inhibitor of proline racemase” value in the assay with total spleen cells is recorded as “abolished”. Moreover, the “inhibition of rTcPA45 enzymatic (racemase) activity” value (from here on “inhibition of rTcPA45 enzymatic”) against rTcPA45 proline racemase was “inhibited to different extents”.
On to `O=C(O)CI` [iodoacetate, reference compound], for which the “mitogenic activity of rTcPA45 after pre-incubation with inhibitor of proline racemase” value with total spleen cells is “abolished”. Moreover, the “inhibition of rTcPA45 enzymatic” value at rTcPA45 proline racemase is on record as “inhibited to different extents”.
As to `O=C(O)[C@H]1CCCN1` [D-proline], in the assay on total spleen cells, the “mitogenic activity of rTcPA45 with cultures supplemented with increasing amounts of substrate” value is listed as “affected considerably” and the “cell proliferation of lymphocytes with substrate alone” value is on record as “no cell proliferation”.
Turning to concanavalin A [ConA], the results for the 3H-thymidine uptake with total spleen cells and in the assay with total spleen cells (listed as concavalin A) were 32000 c.p.m and 32,000 c.p.m, respectively.
In the case of `O=C(O)/C=C\C(=O)O` [maleic acid, reference compound], the “inhibition of rTcPA45 enzymatic” value against rTcPA45 proline racemase was “inhibited to different extents”.
On to `O=C(O)[C@@H]1CCCN1` [L-proline], for which, in the assay on total spleen cells, the “mitogenic activity of rTcPA45 with cultures supplemented with increasing amounts of substrate” value is given as “affected considerably” and the “cell proliferation of lymphocytes with substrate alone” value is “no cell proliferation”.
Consider lipopolysaccharide [LPS], for which the 3H-thymidine uptake is reported as 3500 c.p.m with total spleen cells and 3,500 c.p.m with total spleen cells (listed as lipopolysaccharide).
As for `NC(=O)CI` [iodoacetamide, reference compound], in the assay with total spleen cells, the “mitogenic activity of rTcPA45 after pre-incubation with inhibitor of proline racemase” value was “abolished”. At rTcPA45 proline racemase, the “inhibition of rTcPA45 enzymatic” value is recorded as “inhibited to different extents”.
